Measurements published in ChEMBL document CHEMBL5108015, “4,6-Disubstituted-1H-Indazole-4-Amine derivatives with immune-chemotherapy effect and in vivo antitumor activity” (Eur J Med Chem, 2022).

How the values were obtained:
[1] = biological target: T1, Tryptophan 2,3-dioxygenase (Homo sapiens, UniProt P48775); experiment: (§1) Inhibition of N-terminal hexa-histidine tagged human TDO (19 to 388 residues) expressed in Escherichia coli Transetta (DE3) using L-tryptophan as substrate at 100 uM preincubated with enzyme for 10 mins followed by substrate addition and measured after 30 to 60 mins by microplate reader analysis relative to control; conditions: time 40-70 min
Target sequence in this assay (P48775 whole entry, looked up, the tested form may be a part): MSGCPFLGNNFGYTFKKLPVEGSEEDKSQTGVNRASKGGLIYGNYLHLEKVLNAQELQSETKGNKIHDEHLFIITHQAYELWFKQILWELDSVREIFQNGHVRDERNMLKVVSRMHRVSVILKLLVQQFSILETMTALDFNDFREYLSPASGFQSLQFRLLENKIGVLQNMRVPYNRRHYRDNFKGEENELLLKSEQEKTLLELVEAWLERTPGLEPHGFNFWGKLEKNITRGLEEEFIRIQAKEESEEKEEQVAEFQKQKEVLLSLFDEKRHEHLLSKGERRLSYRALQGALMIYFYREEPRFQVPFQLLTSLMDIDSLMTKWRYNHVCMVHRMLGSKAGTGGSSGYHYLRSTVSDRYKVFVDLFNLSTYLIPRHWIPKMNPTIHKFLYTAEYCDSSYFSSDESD

[2] = biological target: T1, Tryptophan 2,3-dioxygenase; experiment: as §1, with “10” for “100”; conditions: time 40-70 min
Target sequence in this assay (P48775 whole entry, looked up, the tested form may be a part): as above

[3] = biological target: T1, Tryptophan 2,3-dioxygenase; experiment: Inhibition of N-terminal hexa-histidine tagged human TDO (19 to 388 residues) expressed in Escherichia coli Transetta (DE3) using L-tryptophan as substrate preincubated with enzyme for 10 mins followed by substrate addition and measured after 30 to 60 mins by microplate reader analysis
Target sequence in this assay (P48775 whole entry, the tested form may be a part): as the sequence (P48775 whole entry, looked up, the tested form may be a part) above

[4] = biological target: T2, Indoleamine 2,3-dioxygenase 1 (Homo sapiens, UniProt P14902); experiment: as §1, with “IDO1 (12” for “TDO (19”, “403” for “388”; conditions: time 40-70 min
Target sequence in this assay (P14902 whole entry, looked up): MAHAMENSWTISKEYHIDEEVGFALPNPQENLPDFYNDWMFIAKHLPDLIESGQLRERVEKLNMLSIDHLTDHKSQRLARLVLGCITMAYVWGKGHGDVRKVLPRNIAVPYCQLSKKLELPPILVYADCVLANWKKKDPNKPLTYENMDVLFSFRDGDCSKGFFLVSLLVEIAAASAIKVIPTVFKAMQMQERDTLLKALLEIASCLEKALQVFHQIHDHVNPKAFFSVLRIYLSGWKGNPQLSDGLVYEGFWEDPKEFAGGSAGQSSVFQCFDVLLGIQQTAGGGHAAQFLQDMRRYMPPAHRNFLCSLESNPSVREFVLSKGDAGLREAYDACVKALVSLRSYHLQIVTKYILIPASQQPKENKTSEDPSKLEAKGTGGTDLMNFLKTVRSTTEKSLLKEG

[5] = biological target: T2, Indoleamine 2,3-dioxygenase 1; experiment: as §1, with “IDO1 (12” for “TDO (19”, “403” for “388”, “10” for “100”; conditions: time 40-70 min
Target sequence in this assay (P14902 whole entry, looked up): as above

[6] = biological target: T2, Indoleamine 2,3-dioxygenase 1; experiment: Inhibition of N-terminal hexa-histidine tagged human IDO1 (12 to 403 residues) expressed in Escherichia coli Transetta (DE3) using L-tryptophan as substrate preincubated with enzyme for 10 mins followed by substrate addition and measured after 30 to 60 mins by microplate reader analysis
Target sequence in this assay (P14902 whole entry): as the sequence (P14902 whole entry, looked up) above

HepG2 = experiment: Cytotoxicity against human HepG2 cells assessed as inhibition of cell growth incubated for 24 hrs by MTT assay; format: functional, cell-based; conditions: HepG2, 24 h
[7] = Cytotoxicity against […] cells assessed as inhibition of cell growth incubated for 24 hrs by MTT assay; format: functional, cell-based; conditions: Mus musculus, Hepa1-6, 24 h
H22 = experiment: Cytotoxicity against mouse H22 cells assessed as inhibition of cell growth incubated for 24 hrs by MTT assay; format: functional, cell-based; conditions: H22, 24 h
B16 = experiment: Cytotoxicity against mouse B16 cells assessed as inhibition of cell growth incubated for 24 hrs by MTT assay; format: functional, cell-based; conditions: B16, 24 h
MOLM-13 = experiment: Cytotoxicity against human MOLM-13 cells assessed as inhibition of cell growth incubated for 24 hrs by MTT assay; format: functional, cell-based; conditions: MOLM-13, 24 h
Jurkat = experiment: Cytotoxicity against human Jurkat cells assessed as inhibition of cell growth incubated for 24 hrs by MTT assay; format: functional, cell-based
[8] = biological target: T2, Indoleamine 2,3-dioxygenase 1; experiment: Inhibition of human IDO1
Target sequence in this assay (P14902 whole entry): as the sequence (P14902 whole entry, looked up) above

[9] = biological target: T1, Tryptophan 2,3-dioxygenase; experiment: Inhibition of human TDO
Target sequence in this assay (P48775 whole entry, the tested form may be a part): as the sequence (P48775 whole entry, looked up, the tested form may be a part) above

HEK293 = experiment: Cytotoxicity against HEK293 cells assessed as inhibition of cell growth at <10 uM incubated for 24 hrs by MTT assay; format: toxicity, cell-based; conditions: human, hek293, 24 h
[10] = biological target: Tyrosine-protein kinase receptor UFO (Homo sapiens) (UniProt P30530); experiment: Inhibition of human AXL at 2 uM by DiscoveryX Kinomescan assay relative to control
[11] = biological target: Tyrosine-protein kinase BTK (Homo sapiens) (UniProt Q06187); experiment: Inhibition of human BTK at 2 uM by DiscoveryX Kinomescan assay relative to control
[12] = biological target: Serine/threonine-protein kinase B-raf (Homo sapiens) (UniProt P15056); experiment: Inhibition of human B-Raf at 2 uM by DiscoveryX Kinomescan assay relative to control
[13] = biological target: Mast/stem cell growth factor receptor Kit (Homo sapiens) (UniProt P10721); experiment: Inhibition of human c-KIT at 2 uM by DiscoveryX Kinomescan assay relative to control
[14] = biological target: RAF proto-oncogene serine/threonine-protein kinase (Homo sapiens) (UniProt P04049); experiment: Inhibition of human c-Raf at 2 uM by DiscoveryX Kinomescan assay relative to control
[15] = tested on: Receptor-type tyrosine-protein kinase FLT3 (Homo sapiens), P36888 [D835Y]; experiment: Inhibition of human FLT3 D835Y mutant at 2 uM by DiscoveryX Kinomescan assay relative to control
[16] = biological target: Receptor-type tyrosine-protein kinase FLT3 (Homo sapiens) (UniProt P36888); experiment: Inhibition of human FLT3 at 2 uM by DiscoveryX Kinomescan assay relative to control
[17] = biological target: Tyrosine-protein kinase JAK1 (Homo sapiens) (UniProt P23458); experiment: Inhibition of human JAK1 at 2 uM by DiscoveryX Kinomescan assay relative to control
[18] = biological target: Tyrosine-protein kinase JAK2 (Homo sapiens) (UniProt O60674); experiment: Inhibition of human JAK2 at 2 uM by DiscoveryX Kinomescan assay relative to control
[19] = biological target: Tyrosine-protein kinase JAK3 (Homo sapiens) (UniProt P52333); experiment: Inhibition of human JAK3 at 2 uM by DiscoveryX Kinomescan assay relative to control
[20] = biological target: Vascular endothelial growth factor receptor 2 (Homo sapiens) (UniProt P35968); experiment: Inhibition of human KDR at 2 uM by DiscoveryX Kinomescan assay relative to control
[21] = biological target: Tyrosine-protein kinase Lyn (Homo sapiens) (UniProt P07948); experiment: Inhibition of human LYN at 2 uM by DiscoveryX Kinomescan assay relative to control
[22] = biological target: Platelet-derived growth factor receptor alpha (Homo sapiens) (UniProt P16234); experiment: Inhibition of human PDGFRalpha at 2 uM by DiscoveryX Kinomescan assay relative to control
[23] = biological target: Serine/threonine-protein kinase pim-1 (Homo sapiens) (UniProt P11309); experiment: Inhibition of human PIM-1 at 2 uM by DiscoveryX Kinomescan assay relative to control
[24] = biological target: Serine/threonine-protein kinase pim-2 (Homo sapiens) (UniProt Q9P1W9); experiment: Inhibition of human PIM-2 at 2 uM by DiscoveryX Kinomescan assay relative to control
[25] = biological target: Tyrosine-protein kinase Yes (Homo sapiens) (UniProt P07947); experiment: Inhibition of human YES at 2 uM by DiscoveryX Kinomescan assay relative to control
[26] = biological target: DNA-dependent protein kinase catalytic subunit (Homo sapiens) (UniProt P78527); experiment: Inhibition of human DNA-PK at 2 uM by DiscoveryX Kinomescan assay relative to control

Chain of RAF proto-oncogene serine/threonine-protein kinase (Homo sapiens) (P04049 whole entry): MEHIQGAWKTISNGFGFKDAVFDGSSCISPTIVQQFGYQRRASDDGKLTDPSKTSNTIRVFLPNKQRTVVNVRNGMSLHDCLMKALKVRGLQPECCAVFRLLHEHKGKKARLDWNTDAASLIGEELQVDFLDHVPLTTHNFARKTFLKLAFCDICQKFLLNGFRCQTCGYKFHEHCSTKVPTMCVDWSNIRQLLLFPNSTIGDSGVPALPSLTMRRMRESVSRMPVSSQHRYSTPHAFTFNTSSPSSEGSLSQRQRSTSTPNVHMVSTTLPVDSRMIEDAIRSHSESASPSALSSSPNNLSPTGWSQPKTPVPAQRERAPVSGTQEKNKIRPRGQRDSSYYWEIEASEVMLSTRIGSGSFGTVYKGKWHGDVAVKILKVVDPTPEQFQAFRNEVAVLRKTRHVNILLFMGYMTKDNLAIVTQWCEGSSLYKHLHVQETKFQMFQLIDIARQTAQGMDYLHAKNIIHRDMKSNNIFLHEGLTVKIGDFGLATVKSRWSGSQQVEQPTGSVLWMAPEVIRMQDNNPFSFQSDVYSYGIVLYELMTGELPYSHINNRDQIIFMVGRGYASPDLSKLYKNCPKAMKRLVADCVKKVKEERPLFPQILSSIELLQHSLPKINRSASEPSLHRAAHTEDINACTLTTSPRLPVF
Chain of Tyrosine-protein kinase JAK3 (Homo sapiens) (P52333 whole entry): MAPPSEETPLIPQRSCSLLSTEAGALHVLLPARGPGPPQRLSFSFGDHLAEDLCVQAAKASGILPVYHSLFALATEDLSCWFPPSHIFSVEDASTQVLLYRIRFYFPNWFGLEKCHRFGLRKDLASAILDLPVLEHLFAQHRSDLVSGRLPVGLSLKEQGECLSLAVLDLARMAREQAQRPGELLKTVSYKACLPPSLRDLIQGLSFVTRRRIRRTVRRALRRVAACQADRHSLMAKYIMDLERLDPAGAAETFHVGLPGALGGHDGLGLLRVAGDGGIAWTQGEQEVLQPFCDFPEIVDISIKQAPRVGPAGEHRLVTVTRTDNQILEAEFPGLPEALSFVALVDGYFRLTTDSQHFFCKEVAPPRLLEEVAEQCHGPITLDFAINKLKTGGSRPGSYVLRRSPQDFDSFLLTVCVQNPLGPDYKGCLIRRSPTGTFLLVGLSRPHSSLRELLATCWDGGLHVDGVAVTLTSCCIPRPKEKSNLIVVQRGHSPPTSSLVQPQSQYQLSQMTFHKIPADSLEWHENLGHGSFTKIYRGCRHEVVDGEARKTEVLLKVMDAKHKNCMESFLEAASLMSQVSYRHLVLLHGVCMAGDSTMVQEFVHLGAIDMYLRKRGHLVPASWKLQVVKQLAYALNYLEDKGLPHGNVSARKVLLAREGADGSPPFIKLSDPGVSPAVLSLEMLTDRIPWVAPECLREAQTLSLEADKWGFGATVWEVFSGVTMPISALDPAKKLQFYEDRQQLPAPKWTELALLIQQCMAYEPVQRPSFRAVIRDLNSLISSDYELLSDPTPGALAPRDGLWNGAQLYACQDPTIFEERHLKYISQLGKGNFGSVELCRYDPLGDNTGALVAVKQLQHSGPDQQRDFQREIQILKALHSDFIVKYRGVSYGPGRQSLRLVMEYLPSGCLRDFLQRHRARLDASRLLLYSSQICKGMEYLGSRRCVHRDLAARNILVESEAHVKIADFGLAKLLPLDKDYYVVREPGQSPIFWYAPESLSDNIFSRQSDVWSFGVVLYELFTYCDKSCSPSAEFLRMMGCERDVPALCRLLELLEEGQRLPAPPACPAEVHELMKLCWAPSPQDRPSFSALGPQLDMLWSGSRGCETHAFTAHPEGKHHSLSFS
Chain of Serine/threonine-protein kinase pim-1 (Homo sapiens) (P11309 whole entry, looked up): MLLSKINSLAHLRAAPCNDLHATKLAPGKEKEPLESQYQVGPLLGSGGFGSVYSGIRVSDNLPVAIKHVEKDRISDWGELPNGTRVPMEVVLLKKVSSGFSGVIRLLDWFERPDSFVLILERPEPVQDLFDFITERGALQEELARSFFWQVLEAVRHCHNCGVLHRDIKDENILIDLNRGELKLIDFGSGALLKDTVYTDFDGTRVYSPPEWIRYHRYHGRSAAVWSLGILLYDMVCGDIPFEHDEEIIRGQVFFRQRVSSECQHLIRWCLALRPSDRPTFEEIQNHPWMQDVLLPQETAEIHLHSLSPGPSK
Chain of Serine/threonine-protein kinase B-raf (Homo sapiens) (P15056 whole entry): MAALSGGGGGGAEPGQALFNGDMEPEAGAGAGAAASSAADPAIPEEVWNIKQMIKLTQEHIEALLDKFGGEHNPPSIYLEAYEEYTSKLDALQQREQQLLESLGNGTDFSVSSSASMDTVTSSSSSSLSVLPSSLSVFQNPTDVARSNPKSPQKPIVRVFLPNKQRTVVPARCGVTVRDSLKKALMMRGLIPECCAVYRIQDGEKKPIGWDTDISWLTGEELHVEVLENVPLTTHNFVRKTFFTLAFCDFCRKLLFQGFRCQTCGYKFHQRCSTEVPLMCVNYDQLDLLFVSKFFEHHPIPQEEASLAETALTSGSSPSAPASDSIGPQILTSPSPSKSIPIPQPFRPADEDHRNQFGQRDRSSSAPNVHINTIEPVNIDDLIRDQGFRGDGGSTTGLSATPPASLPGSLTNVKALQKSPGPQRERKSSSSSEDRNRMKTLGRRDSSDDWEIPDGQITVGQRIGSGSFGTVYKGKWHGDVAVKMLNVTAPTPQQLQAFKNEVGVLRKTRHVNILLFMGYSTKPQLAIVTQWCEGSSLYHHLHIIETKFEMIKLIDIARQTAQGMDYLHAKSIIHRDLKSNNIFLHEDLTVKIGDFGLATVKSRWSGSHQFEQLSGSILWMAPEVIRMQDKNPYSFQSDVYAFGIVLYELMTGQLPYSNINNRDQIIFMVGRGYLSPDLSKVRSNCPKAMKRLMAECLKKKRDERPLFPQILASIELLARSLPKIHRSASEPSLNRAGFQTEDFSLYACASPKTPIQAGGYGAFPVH
Chain of Serine/threonine-protein kinase pim-2 (Homo sapiens) (Q9P1W9 whole entry, looked up): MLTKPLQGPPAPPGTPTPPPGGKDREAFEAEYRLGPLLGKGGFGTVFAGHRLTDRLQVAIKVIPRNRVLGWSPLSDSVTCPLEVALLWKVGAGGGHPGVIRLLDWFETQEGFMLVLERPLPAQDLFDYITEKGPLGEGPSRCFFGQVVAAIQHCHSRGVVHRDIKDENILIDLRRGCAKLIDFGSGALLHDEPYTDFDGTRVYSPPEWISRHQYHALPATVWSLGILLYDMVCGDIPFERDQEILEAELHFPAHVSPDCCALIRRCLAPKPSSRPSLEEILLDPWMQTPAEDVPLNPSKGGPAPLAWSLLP

| Structure (SMILES) | inhibition [1] | inhibition [2] | IC50 [3] | inhibition [4] | inhibition [5] | IC50 [6] | IC50 (HepG2) | IC50 [7] | IC50 (H22) | IC50 (B16) | IC50 (MOLM-13) | IC50 (Jurkat) | further results |
| --- | --- | --- | --- | --- | --- | --- | --- | --- | --- | --- | --- | --- | --- |
| O=[N+](O)c1c(Cl)cccc1CNc1cc(C(F)(F)F)cc2[nH]ncc12 | 94% | 96% | 0.17 µM | 69% | 45% | 60 µM | > 20 µM | > 20 µM | > 20 µM | > 20 µM | 7.69 µM | > 20 µM | – |
| O=[N+]([O-])c1cc(Br)c(F)cc1CNc1cc(C(F)(F)F)cc2[nH]ncc12 | 88% | 85% | 1.46 µM | 64% | 31% | > 100 µM | 1.96 µM | 15 µM | 1.85 µM | 13.8 µM | 4.27 µM | 2.82 µM | – |
| CC(C(=O)c1ccc(O)cc1)C1(O)C(=O)Nc2c(Cl)cc(Cl)cc21 (stereo not given) | – | – | – | – | – | – | – | – | – | – | – | – | Ki [8]: > 1 µM; Ki [9]: > 1 µM |
| COc1cc(CNc2cc(Br)cc3[nH]ncc23)c([N+](=O)[O-])cc1OC | 95% | 87% | 1.04 µM | 79% | 48% | 18.5 µM | 2.97 µM | 15.2 µM | 6.11 µM | > 20 µM | > 20 µM | > 20 µM | – |
| O=[N+]([O-])c1ccc(Cl)cc1CNc1cc(C(F)(F)F)cc2[nH]ncc12 | 88% | 84% | 3.19 µM | 65% | 35% | 37.7 µM | 1.3 µM | 0.94 µM | 0.49 µM | 11.6 µM | 1.05 µM | 1.1 µM | Activity (HEK293): Non-Toxic |
| O=[N+]([O-])c1ccccc1CNc1cc(C(F)(F)F)cc2[nH]ncc12 | 95% | 89% | 2.55 µM | 76% | 35% | 13.9 µM | 7.76 µM | 7.58 µM | 9.01 µM | > 20 µM | 2.35 µM | > 20 µM | inhibition [10]: 33%; inhibition [11]: 12%; inhibition [12]: 27%; inhibition [13]: 61%; inhibition [14]: 31%; inhibition [15]: 96%; inhibition [16]: 93%; inhibition [17]: 66%; inhibition [18]: 35%; inhibition [19]: 78%; inhibition [20]: 100%; inhibition [21]: 50%; inhibition [22]: 23%; inhibition [23]: 78%; inhibition [24]: 4%; inhibition [25]: 33%; inhibition [26]: 0% |
